This note sets out measurements from US20130096160A1, “ARYLTHIAZOLYL PIPERIDINES AND RELATED COMPOUNDS AS MODULATORS OF SURVIVAL MOTOR NEURON (SMN) PROTEIN PRODUCTION” (Secretary, Department of Health and Human Services, priority 2010, published 2013).

In one test the test system is SMN1-luciferase reporter. Kind of test: SMN1-luciferase reporter control cell line. The test is classed as cell-based, human. The note with it: SMN1-luc reporter, FIG. 1. An excerpt: A cell-based quantitative high throughput screening (qHTS) assay is used to identify compounds able to increase SMN production. The assay uses a SMN2-luciferase reporter to determine if exon 7 of the SMN gene is expressed, which correlates with increased full-length SMN production from the SMN2 gene. As controls, a homologue SMN1-luciferase reporter cell line looks for variations in expression of the SMN1 gene and a cell line with just the luciferase reporter looks at the capacity of the compounds to inhibit luciferase. In addition, increments in SMN production by lead compounds were confirmed by Western-Blot analysis using SMA patient fibroblasts.
The SMN reporters used herein are modified from those previously described (M. L. Zhang, C. L. Lorson, E. J. Androphy and J. Zhou, An in vivo reporter system for measuring increased inclusion of exon 7 in SMN2 mRNA: potential therapy of SMA, Gene Ther 8 (2001), pp. 1532-1538.)
The sequence of the SMN1 reporter vector used herein is given in SEQ ID NO.:1, while that of the SMN2 reporter vector is given in SEQ ID NO.:2. […]

Another test deals with human SMN protein. The test can be described thus: Western blot of SMN protein in SMA patient fibroblasts (3813). It counts as cell-based. The note with it: SMA patient cells (3813), 0.1-10 μM, FIG. 2. As to the method: Type I spinal muscular atrophy (SMA)-affected human primary fibroblasts (#GM03813) and carrier parents (#GM03814, parent and #GM03815, […]) are obtained live with low passage number from Coriell Cell Repositories. […] For detection of SMN protein in patient fibroblasts, 8,000 cells per cm^2 are plated 24 hours prior to drug addition. Fresh media and compound are added every 24 hours. After 72 hours, cells are harvested, washed with cold PBS, and lysed. Samples are subjected to polyacrylamide gel electrophoresis (PAGE). It is determined that 10 μg total protein per lane is within the linear range for immunoblot detection of SMN and alpha-tubulin. Western blots of the gel are probed for SMN with the 4B7 mouse monoclonal antibody (from the lab of Christian Lorson). A goat anti-mouse antibody (Santa Cruz Biotechnology/#sc-2005) conjugated to horseradish peroxidase (HRP) is used as the secondary antibody. Quantification of protein is performed by detecting chemiluminescence with a Fujifilm LAS-4000 Multifunctional Imaging System. […] We incubated a fibroblast cell line from a type I SMA patient (3813 cell line) with different doses of analogues and assessed the SMN protein level by quantitative western blotting (FIG. 4). We observed that analogue 8 m at concentration of 37 nanomolar increased the SMN protein level by 2-3 fold. […] This could be due with the intrinsic mechanism of action or to other causes, such us concentration dependent compound solubility.

A further test relates to SMN2-luciferase reporter. Kind of test: SMN2-luciferase reporter qHTS assay. It counts as cell-based, human. The note with it: SMN2-luc reporter, FIG. 1. An outline of the steps:
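SMN2 exon-7 splicing firefly-luciferase reporter cell line, ~2000 cells/well in phenol-red-free DMEM with 10% serum, allowed to adhere 10–12 h, then exposed to compounds for 2 days at 37 C, 5% CO2. Seven-point five-fold dilution series (e.g. 50 μM to 3.2 nM), OneGlo luminescence read, curves fitted to Hill equation.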

Turning to `COc1nc(-c2ccccc2)nnc1-c1ccccc1` [MLS000763654], in the test on SMN1-luciferase reporter, the “expression of SMN1 (in words)” value is “reduces the expression of SMN1”. In addition, the “SMN protein by Western blot (in words)” value with human SMN protein is reported as “concentration-dependent increase in SMN protein”. Besides, the “expression of SMN2 / levels of the full length SMN2 gene (in words)” value in the test with SMN2-luciferase reporter was “increases the expression of SMN2”.
